The target in one test is rPRC2 (Homo sapiens, UniProt O75530+Q15910). In words: rPRC2 methylase stimulation assay (3H-SAM, FLASHplate/TopCount). The format is biochemical. Particulars: FIG. 5, histone peptides ~1.86 μM, oligonucleosomes 14.95 nM, 45 min at 30° C. From the text: Polycomb repressive complex 2 (PRC2) is a multisubunit methylase complex that includes EZH2 (Enhancer of Zeste Homolog 2), EED, SUZ12, Rbap46, and Rbap48 subunits. Reconstituted PRC2 complexes (MW=600 kDa) were used in vitro assays to determine methylase activity in the presence of novel stimulating agents.
rPRC2, sequence (Q15910 1-751 isoform Q15910-2): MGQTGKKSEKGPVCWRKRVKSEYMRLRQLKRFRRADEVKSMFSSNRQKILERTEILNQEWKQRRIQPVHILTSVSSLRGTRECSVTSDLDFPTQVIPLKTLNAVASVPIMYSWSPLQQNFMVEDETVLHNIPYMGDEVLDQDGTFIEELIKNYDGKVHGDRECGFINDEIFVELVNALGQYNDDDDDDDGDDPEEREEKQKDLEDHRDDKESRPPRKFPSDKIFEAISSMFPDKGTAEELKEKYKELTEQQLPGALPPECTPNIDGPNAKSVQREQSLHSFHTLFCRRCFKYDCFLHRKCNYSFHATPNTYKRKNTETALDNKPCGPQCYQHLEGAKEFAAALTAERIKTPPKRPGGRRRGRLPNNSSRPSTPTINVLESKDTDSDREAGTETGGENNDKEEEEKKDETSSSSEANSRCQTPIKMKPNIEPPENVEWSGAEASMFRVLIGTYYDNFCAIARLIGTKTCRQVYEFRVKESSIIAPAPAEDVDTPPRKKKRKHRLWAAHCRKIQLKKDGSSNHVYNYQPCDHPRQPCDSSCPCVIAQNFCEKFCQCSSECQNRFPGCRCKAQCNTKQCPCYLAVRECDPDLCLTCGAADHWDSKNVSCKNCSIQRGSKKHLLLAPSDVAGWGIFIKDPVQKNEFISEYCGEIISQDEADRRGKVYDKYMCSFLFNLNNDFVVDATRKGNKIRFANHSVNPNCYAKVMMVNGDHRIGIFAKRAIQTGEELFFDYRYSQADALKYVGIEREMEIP
rPRC2, sequence (O75530 whole entry): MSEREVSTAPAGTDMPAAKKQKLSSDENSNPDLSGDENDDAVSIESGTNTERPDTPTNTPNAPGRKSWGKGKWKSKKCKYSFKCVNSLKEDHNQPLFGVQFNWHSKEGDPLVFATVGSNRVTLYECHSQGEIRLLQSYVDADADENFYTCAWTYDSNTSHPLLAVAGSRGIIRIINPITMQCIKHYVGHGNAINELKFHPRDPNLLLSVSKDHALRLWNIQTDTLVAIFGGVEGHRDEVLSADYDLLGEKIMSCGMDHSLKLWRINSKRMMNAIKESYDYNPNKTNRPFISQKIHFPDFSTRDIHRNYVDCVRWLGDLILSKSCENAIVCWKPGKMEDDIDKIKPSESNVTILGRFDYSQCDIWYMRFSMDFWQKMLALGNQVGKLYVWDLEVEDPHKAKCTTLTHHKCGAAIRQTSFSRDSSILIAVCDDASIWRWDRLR
rPRC2, sequence (Q15022 whole entry partner): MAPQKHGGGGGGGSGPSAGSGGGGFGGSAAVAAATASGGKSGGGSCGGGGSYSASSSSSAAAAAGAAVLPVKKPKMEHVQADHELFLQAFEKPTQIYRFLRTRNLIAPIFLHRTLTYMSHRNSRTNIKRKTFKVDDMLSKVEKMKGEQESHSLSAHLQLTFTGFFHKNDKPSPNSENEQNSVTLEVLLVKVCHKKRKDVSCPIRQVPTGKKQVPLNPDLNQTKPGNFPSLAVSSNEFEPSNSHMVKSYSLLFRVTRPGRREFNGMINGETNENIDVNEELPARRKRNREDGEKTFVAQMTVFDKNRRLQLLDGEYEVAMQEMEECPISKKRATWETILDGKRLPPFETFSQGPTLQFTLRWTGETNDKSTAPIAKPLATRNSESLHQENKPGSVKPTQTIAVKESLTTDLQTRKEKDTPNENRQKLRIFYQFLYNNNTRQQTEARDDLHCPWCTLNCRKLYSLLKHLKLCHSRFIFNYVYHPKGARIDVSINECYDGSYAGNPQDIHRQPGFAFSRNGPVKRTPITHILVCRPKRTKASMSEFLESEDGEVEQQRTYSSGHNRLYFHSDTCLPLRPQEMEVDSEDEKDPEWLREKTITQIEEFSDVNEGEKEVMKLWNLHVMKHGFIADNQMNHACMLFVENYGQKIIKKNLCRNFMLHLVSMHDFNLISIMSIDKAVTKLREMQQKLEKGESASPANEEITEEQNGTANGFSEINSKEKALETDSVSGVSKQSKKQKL
rPRC2, sequence (Q16576 whole entry partner): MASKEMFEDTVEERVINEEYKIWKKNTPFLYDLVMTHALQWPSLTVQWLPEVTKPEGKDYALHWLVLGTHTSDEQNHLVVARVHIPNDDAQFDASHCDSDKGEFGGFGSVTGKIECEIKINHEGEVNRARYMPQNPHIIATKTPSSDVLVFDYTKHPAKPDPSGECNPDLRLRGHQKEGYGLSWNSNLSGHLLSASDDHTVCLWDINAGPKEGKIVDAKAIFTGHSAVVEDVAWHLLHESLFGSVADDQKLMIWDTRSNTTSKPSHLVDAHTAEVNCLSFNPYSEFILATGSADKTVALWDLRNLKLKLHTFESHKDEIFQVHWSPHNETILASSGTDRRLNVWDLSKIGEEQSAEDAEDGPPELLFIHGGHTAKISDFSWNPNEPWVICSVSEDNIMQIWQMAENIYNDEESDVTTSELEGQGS
rPRC2, sequence (Q09028 whole entry partner): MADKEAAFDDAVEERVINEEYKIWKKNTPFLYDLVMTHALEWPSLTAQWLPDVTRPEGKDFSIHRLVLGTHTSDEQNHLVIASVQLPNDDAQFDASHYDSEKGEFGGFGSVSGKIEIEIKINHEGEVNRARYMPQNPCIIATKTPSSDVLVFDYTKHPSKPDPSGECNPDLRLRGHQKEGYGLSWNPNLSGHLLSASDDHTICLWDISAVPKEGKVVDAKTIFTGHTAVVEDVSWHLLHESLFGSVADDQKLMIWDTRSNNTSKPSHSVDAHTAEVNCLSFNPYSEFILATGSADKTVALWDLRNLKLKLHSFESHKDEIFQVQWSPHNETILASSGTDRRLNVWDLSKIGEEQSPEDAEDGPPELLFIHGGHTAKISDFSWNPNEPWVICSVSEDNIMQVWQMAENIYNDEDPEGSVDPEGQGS
[…] For detection, Streptavidin FlashPlate HTS PLUS were used (High Capacity, 384 well, Perkin Elmer product # SMP410001PK).
A workflow used for high throughput assays was as follows: • 1. Preparation of assay plates using the ECHO® (Labcyte) (240 nl of DMSO or compound per well) • 2. Preparation of Mix I+II; I: 1202×15 μl; II: 1202×15.0 μl (dead volume ˜50 reactions) • Mix I • 6.0 μl 5× HMT buffer • 0.45 μl DTT 0.2M • 1.0 μl rPRC2 • 1.0 μl H3K27me3 peptide • 0.11 μl Bio/Avi-oligonuc. 1:10 • 6.44 μl water • 15.0 μl • Mix II • 1.0 μl ^3H-SAM • 14.0 μl water • 15.0 μl • 3. Adding Mix I to assay plate using the Multidrop (15 μl per well) • 4. Adding Mix II to assay plate using the Multidrop (15 μl per well) • 5. Mix content of wells in the assay plate • 6. Spin plate for 1 min at 400 RPM • 7. Incubate assay plate for 60 min at 30° C. • 8. Quench reaction by adding 30 μl of SAH [1.25 mM] to each well (mix); final conc.=568 μM • 9. […]
Stimulation of rPRC2 methylase activity was determined in the presence of unmodified H3, H3K4me3, H3K9me3, H3K27me3, H3K36me3, H3K79me3, H4K20me3, and H1.4K26me3. […]

Test [1] addresses recombinant Polycomb Repressive Complex 2 (rPRC2) complex, including EZH2, EED, SUZ12, RBAP46, and RBAP48 subunits (human) (UniProt Q15910). Put plainly: cell-based or functional assay.

Regarding “VKKKAR[Kme2]SAGAAKRKASG(-Biotin) [H1.4K26me3]”, the “stimulation of rPRC2 methylase activity toward oligonucleosomes (in words)” value on rPRC2 is reported as “Stimulation”. Consider Monomethylated H3K27 peptide, for which the stimulation of rPRC2 methylase activity toward Bio/Avi-H3 in test [1] was 4 fold. On the same count and under the same terms, for Dimethylated H3K27 peptide the value was 6 fold. Turning to “ARTKQTAR[Kme3]STGGKAPRKQLA(-Biotin) [H3K9me3]”, on rPRC2 (enzyme 12.15 nM), the “stimulation of rPRC2 methylase activity toward oligonucleosomes (relative to unmodified H3)” value is listed as “over 9 fold”.
